What was measured:
Format in all cases: cell-based
p-ERK [1] = test: Cell p-ERK assay (HTRF, Advance ERK phospho-T202/Y204 kit) in AsPC-1 cells; details: ASPC1; AsPC-1, human pancreatic cancer cell strain, KRAS G12D mutation; 3 h compound incubation
Procedure: AsPC-1 cells were purchased from ATCC, Cat. No. CRL-1682; NCI-H441 cells were purchased from ATCC, Cat. No. HTB-174; RPMI-1640 medium was purchased from Gibco, Cat. No. 11875-093; FBS was purchased from Gibco, Cat. No. 10099-141C; penicillin/streptomycin double-antibiotic solution (PS) was purchased from Gibco, Cat. No. 15140-122; trypsin (containing EDTA) was purchased from Gibco, Cat. No. 25200-072; DMSO was purchased from VWRAMRESCO, Cat. No. 0231-500ML; 96-well cell culture plates were purchased from Corning, Cat. No. 3599; white-bottomed, opaque 96-well plates were purchased from Cisbio, Cat. No. 66PL96025; Advance ERK phospho-T202/Y204 kit was purchased from Cisbio, Cat. No. 64AERPEH; cell counter was purchased from CHEMOMETEC, model: NC-200; microplate reader was purchased from PerkinElmer, model: EnVision.
AsPC-1, a human pancreatic cancer cell strain endogenously containing a KRAS^G12D mutation, was cultured in a complete medium containing RPMI-1640 + 10% FBS + 1% PS. NCI-H441, a human non-small cell lung cancer cell strain endogenously containing a KRAS^G12V mutation, was cultured in a complete medium containing RPMI-1640 + 10% FBS + 1% PS.
The cells were digested with trypsin (containing EDTA), collected in their corresponding complete media, and counted. The density of the cell suspensions was adjusted with their corresponding complete media, and AsPC-1 cells (10000 cells/well) or NCI-H441 cells (20000 cells/well) were seeded into a 96-well cell culture plate, with the volume of the medium in each well being 80 µL. The cell culture plate was incubated in an incubator at 37 °C with 5% CO2 overnight. A series of 3.16-fold gradient dilutions of a 1000× compound stock solution were prepared with DMSO, and then diluted 200-fold with the complete medium described above to give 5× compound stock solutions. On the day after cell seeding, 20 µL of the 5× compound stock solution was added to each cell culture well. As a result, the final concentration of the compound in the cell culture well became 1×, and the DMSO content in the well was 0.1%. In addition to the compound-treated wells described above, cell-containing DMSO control wells were also set. A complete medium containing 0.5% DMSO was added at 20 µL/well. After the mixture was well mixed, the culture plate was incubated in the incubator at 37 °C with 5% CO2 for another 3 h. The medium was then removed from the culture wells, and 50 µL of cell lysis buffer (from Advance ERK phospho-T202/Y204 kit) was added to each well. The mixture was well mixed, incubated for 30 min, and then transferred to a white-bottomed, opaque 96-well assay plate at 16 µL/well, and separately, 16 µL of cell lysis buffer was added to additional wells (serving as blank wells) in the assay plate. After the transfer was completed, 4 µL of p-ERK HTRF antibody mixture (from Advance ERK phospho-T202/Y204 kit) was added to each well of the assay plate, followed by a 4-hour incubation. The HTRF signal values (RLU) were then measured using a microplate reader, and the inhibition rate of the compound against p-ERK levels was calculated as follows: IR(%) = (RLUDMSO - RLUcompound)/(RLUDMSO - RLUblank) × 100%, where RLUDMSO is the average HTRF signal value from the DMSO control well samples, RLU is the average HTRF signal value from the blank well samples, and RLUcompound is the HTRF signal value from the compound-treated well samples. Using an XLfit software, the IR(%) values were plotted against the logarithm of the compound concentrations, and the dose-response curves were fitted using the four-parameter method to calculate the IC50 values.

NCI-H441 cells = test: 3D cell proliferation assay (CellTiter Glo-3D) in NCI-H441 cells; details: Homo sapiens, NCI-H441, 120 h, NCI-H441, human lung cancer cell strain, KRAS G12V mutation; 3D culture, 2% FBS, 5 days; read-out: H441 AP IC50
Procedure, shortened: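 After a 5-day exposure at 37 °C to 3.16-fold serial dilutions (final DMSO 0.1%) in 2% FBS RPMI-1640, ATP luminescence (CellTiter-Glo 3D) was read. Cells were AsPC-1 (KRAS G12D) or NCI-H441 (KRAS G12V), 800 per well; inhibition used DMSO and medium-only controls, with four-parameter curve fitting giving IC50.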

p-ERK [2] = test: Cell p-ERK assay (HTRF, Advance ERK phospho-T202/Y204 kit) in NCI-H441 cells; details: Homo sapiens, NCI-H441, 3 h, NCI-H441, human non-small cell lung cancer cell strain, KRAS G12V mutation; 3 h compound incubation
Procedure, shortened: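 Cells with endogenous KRAS mutations, AsPC-1 (G12D) and NCI-H441 (G12V), were plated overnight and then exposed to compound for 3 h at 37 °C (final 0.1% DMSO, 10% FBS medium). ERK T202/Y204 phosphorylation in lysates was read by HTRF, and IC50 was derived from four-parameter curves of inhibition relative to DMSO and blank controls.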

AsPC-1 cells = test: 3D cell proliferation assay (CellTiter Glo-3D) in AsPC-1 cells; details: ASPC1, 120 h; AsPC-1, human pancreatic cancer cell strain, KRAS G12D mutation; 3D culture, 2% FBS, 5 days; read-out: AsPC-1 AP IC50
Excerpt: MIA PaCa-2 cells were purchased from ATCC, Cat. No. CRL-1420; AsPC-1 cells were purchased from ATCC, Cat. No. CRL-1682; NCI-H441 cells were purchased from ATCC, Cat. No. HTB-174; NCI-H1975 cells were purchased from ATCC, Cat. No. CRL-5908; DMEM medium was purchased from Gibco, Cat. No. 11995-065; RPMI-1640 medium was purchased from Gibco, Cat. No. 11875-093; FBS was purchased from Gibco, Cat. No. 10099-141C; penicillin/streptomycin double-antibiotic solution (PS) was purchased from Gibco, Cat. No. 15140-122; Horse serum was purchased from Gibco, Cat. No. 16050130; trypsin (containing EDTA) was purchased from Gibco, Cat. No. 25200-072; DMSO was purchased from VWRAMRESCO, Cat. No. 0231-500ML; 384-well cell culture plates were purchased from Corning, Cat. No. 3830; white-bottomed, opaque 384-well assay plates were purchased from Corning, Cat. No. 3570; CellTiter Glo-3D kit was purchased from Promega, Cat. No. G9683; cell counter was purchased from CHEMOMETEC, model: NC-200; microplate reader was purchased from PerkinElmer, model: EnVision.
MIA PaCa-2, a human pancreatic cancer cell strain endogenously containing a KRAS^G12Cmutation, was cultured in a complete medium containing DMEM + 10% FBS + 2.5% Horse serum + 1% PS. AsPC-1, a human pancreatic cancer cell strain endogenously containing a KRAS^G12D mutation, was cultured in a complete medium containing RPMI-1640 + 10% FBS + 1% PS. NCI-H441 cells, a human lung cancer cell strain endogenously containing a KRAS^G12V mutation, were cultured in a complete medium containing RPMI-1640 + 10% FBS + 1% PS. NCI-H1975, a KRAS wild-type human lung cancer cell strain whose cell proliferation […], was cultured in a complete medium containing RPMI-1640 + 10% FBS + 1% PS.
The cells were digested with trypsin (containing EDTA), collected in their respective low-serum complete media containing 2% FBS (for MIA Paca-2 cell culture: DMEM + 2% FBS + 0.5% Horse serum + 1% PS), and counted. After the cell density was adjusted as required, MIA PaCa-2 cells (200 cells/well), AsPC-1 cells (800 cells/well), NCI-H441 cells (800 cells/well), or NCI-H1975 cells (400 cells/well) were seeded into a 384-well cell culture plate, with the volume of the medium in each well being 45 µL. The cell culture plate was incubated in an incubator at 37 °C with 5% CO2 overnight. A series of 3.16-fold gradient dilutions of a 1000× compound stock solution were prepared with DMSO, and then diluted 100-fold with the complete medium containing 2% FBS described above to give 10× compound stock solutions. On the day after cell seeding, 5 µL of the 10× compound stock solution was added to each cell culture well. As a result, the final concentration of the compound in the cell culture well became 1×, and the DMSO content in the well was 0.1%. In addition to the compound-treated wells described above, cell-containing DMSO control wells (with 5 µL of the complete medium containing 1% DMSO added to each well) and cell-free medium control wells (containing 50 µL of the complete medium with 2% FBS) were also set. The culture plate was incubated in an incubator at 37 °C with 5% CO2 for another 5 days, and then 30 µL of CellTiter-Glo working solution was added to each well. The mixture was well mixed, incubated for 30 min, left to stand at room temperature for 30 min, and then transferred to a white-bottomed, opaque 384-well assay plate at 40 µL/well. The chemiluminescence values (RLU) were measured using a microplate reader, and the cell proliferation inhibition rate for each well was calculated: IR(%) = (RLUDMSO - RLUcompound)/(RLUDMSO - RLUblank) × 100%, where RLUDMSO is the average RLU signal value from the DMSO control well samples, RLUblank is the average RLU signal value from the medium control well samples, and RLUcompound is the RLU signal value from the compound-treated well samples. […]

Structure (SMILES)	IC50 (p-ERK [1]) [nM]	IC50 (NCI-H441 cells) [nM]	IC50 (p-ERK [2]) [nM]	IC50 (AsPC-1 cells) [nM]
CCn1cc2c(c1-c1cc(C#CCN3CCC(C#N)CC3)cnc1[C@H](C)OC)CC(C)(C)COC(=O)[C@@H]1CCCN(N1)C(=O)[C@@H](NC(=O)[C@H]1[C@H](C)[C@@H]1C)Cc1nc(cs1)/C=C/2 (atropisomer, axis not shown; (Ra)) [Compound Z49, (1r,2R,3S)-N-((4 ^2Z,8^3S,2E,6S)-(Ra)-1^5-(5-(3-(4-cyanopiperidin-1-yl)prop-1-yn-1-yl)-2-((S)-1-methoxyethyl)pyridin-3-yl)-1^1-ethyl-12,12-dimethyl-7,9-dioxo-8^1,8^2,8^3,8^4,8^5,8^6-hexahydro-1^1H-10-oxa-4(4,2)-thiazola-8(1,3)-pyridazina-1(3,4)-pyrrolacyclotridecaphan-2-en-6-yl)-2,3-dimethylcyclopropane-1-carboxamide]	0.13	0.14	0.17	0.08
CCn1cc2c(c1-c1cc(C#CCN3CCC(C#N)CC3)cnc1[C@H](C)OC)CC(C)(C)COC(=O)[C@@H]1CCCN(N1)C(=O)[C@@H](NC(=O)[C@H]1[C@@H]3COC[C@@H]31)Cc1nc(cs1)/C=C/2 (atropisomer, axis not shown; (Ra)) [Compound Z50, (1R,5S,6r)-N-((4^2Z,8^3S,2E,6S)-(Ra)-1^5-(5-(3-(4-cyanopiperidin-1-yl)prop-1-yn-1-yl)-2-((S)-1-methoxyethyl)pyridin-3-yl)-1^1-ethyl-12,12-dimethyl-7,9-dioxo-8^1,8^2,8^3,8^4,8^5,8^6-hexahydro-1^1H-10-oxa-4(4,2)-thiazola-8(1,3)-pyridazina-1(3,4)-pyrrolacyclotridecaphan-2-en-6-yl)-3-oxabicyclo[3.1.0]hexane-6-carboxamide]	0.11	0.14	0.29	0.19
CO[C@@H](C)c1ncc(C#CCN2CCC(C#N)(CN)CC2)cc1-c1c2c(nn1C(C)C)/C=C/c1csc(n1)C[C@H](NC(=O)[C@H]1[C@H](C)[C@@H]1C)C(=O)N1CCC[C@H](N1)C(=O)OCC(C)(C)C2 (atropisomer, axis not shown; (Ra)) [Compound Z62]	4.9	4.56	3.5	5.12
CCn1cc2c(c1-c1cc(C#CCN3CCC(C#N)(CN)CC3)cnc1[C@H](C)OC)CC(C)(C)COC(=O)[C@@H]1CCCN(N1)C(=O)[C@@H](NC(=O)[C@H]1[C@H](C)[C@@H]1C)Cc1nc(cs1)/C=C/2 (atropisomer, axis not shown; (Ra)) [Compound Z65]	0.14	0.17	0.58	0.1
CCn1cc2c(c1-c1cc(C#CCN3CCC(C#N)(CN)CC3)cnc1[C@H](C)OC)CC(C)(C)COC(=O)[C@@H]1CCCN(N1)C(=O)[C@@H](NC(=O)[C@H]1[C@@H]3COC[C@@H]31)Cc1nc(cs1)/C=C/2 (atropisomer, axis not shown; (Ra)) [Compound Z66]	0.16	0.18	0.38	0.24
CCn1cc2c(c1-c1cc(C#CCN3CCCOCC3)cnc1[C@H](C)OC)CC(C)(C)COC(=O)[C@@H]1CCCN(N1)C(=O)[C@@H](NC(=O)[C@H]1[C@H](C)[C@@H]1C)Cc1nc(cs1)/C=C/2 (atropisomer, axis not shown; (Ra)) [Compound Z69, (1r,2R,3S)-N-((4^2Z,8^3S,2E,6S)-(Ra)-1^5-(5-(3-(1,4-oxazepan-4-yl)prop-1-yn-1-yl)-2-((S)-1-methoxyethyl)pyridin-3-yl)-1^1-ethyl-12,12-dimethyl-7,9-dioxo-8^1,8^2,8^3,8^4,8^5,8^6-hexahydro-1^1H-10-oxa-4(4,2)-thiazola-8(1,3)-pyridazina-1(3,4)-pyrrolacyclotridecaphan-2-en-6-yl)-2,3-dimethylcyclopropane-1-carboxamide]	1.54	0.58	0.9	0.67
